Calls of active or inactive are those of the source.
Key:
[1] = target: T1, Lysosomal acid glucosylceramidase (Homo sapiens, UniProt P04062); assay: Dose response cell-based high throughput screening assay to identify enhancers of beta-glucosidase activity. [Related pubchem assays: 784 ]; format: functional
T1 sequence (P04062 whole entry): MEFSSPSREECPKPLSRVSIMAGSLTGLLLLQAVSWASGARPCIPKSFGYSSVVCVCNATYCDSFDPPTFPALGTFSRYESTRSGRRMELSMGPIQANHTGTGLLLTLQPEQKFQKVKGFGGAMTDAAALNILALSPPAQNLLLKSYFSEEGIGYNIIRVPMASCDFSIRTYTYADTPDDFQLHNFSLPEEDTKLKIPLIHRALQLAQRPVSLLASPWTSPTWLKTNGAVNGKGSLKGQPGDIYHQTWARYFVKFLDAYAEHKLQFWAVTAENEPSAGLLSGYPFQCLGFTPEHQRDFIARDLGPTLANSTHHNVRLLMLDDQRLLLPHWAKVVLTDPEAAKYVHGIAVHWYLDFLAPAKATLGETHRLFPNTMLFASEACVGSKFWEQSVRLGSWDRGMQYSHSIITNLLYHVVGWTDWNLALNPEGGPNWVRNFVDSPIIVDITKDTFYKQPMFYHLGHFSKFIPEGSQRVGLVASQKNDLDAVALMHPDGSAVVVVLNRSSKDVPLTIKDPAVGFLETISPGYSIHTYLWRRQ

Cytochrome P450 2C19 = Cytochrome P450 2C19 (Homo sapiens, UniProt P33261); assay: Cytochrome panel assay with activity outcomes. Panel member name: p450-cyp2c19 Compounds with AC50 equal or less than 10 uM are considered active; format: functional
Sequence of Cytochrome P450 2C19 (P33261 whole entry): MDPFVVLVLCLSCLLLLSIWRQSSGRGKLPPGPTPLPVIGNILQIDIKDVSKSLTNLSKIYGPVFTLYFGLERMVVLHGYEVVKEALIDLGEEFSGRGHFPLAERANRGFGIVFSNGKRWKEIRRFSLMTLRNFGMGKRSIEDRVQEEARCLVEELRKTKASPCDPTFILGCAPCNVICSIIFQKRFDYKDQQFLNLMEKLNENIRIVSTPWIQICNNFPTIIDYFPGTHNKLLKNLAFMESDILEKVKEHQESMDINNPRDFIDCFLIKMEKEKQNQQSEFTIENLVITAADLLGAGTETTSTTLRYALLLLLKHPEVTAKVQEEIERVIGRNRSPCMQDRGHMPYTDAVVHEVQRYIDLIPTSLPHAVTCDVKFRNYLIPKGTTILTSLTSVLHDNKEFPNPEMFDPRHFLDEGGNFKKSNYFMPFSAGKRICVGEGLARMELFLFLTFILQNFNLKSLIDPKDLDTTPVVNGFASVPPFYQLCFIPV

[2] = HEp-2 cell cytotoxicity, dose response, cytotoxicity control for RSV inhibitor project, HTS (AID 2410); format: functional; settings: human respiratory syncytial virus
Vero [3] = assay: cells; format: functional, cell-based; settings: Chlorocebus sabaeus
Vero [4] = assay: cells; format: functional; settings: Chlorocebus sabaeus
Cytochrome P450 3A4 = Cytochrome P450 3A4 (Homo sapiens, UniProt P08684); settings: Potency;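 also: confirmatory qHTS run detecting inhibitors and substrates of CYP3A4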
Sequence of Cytochrome P450 3A4 (P08684 whole entry): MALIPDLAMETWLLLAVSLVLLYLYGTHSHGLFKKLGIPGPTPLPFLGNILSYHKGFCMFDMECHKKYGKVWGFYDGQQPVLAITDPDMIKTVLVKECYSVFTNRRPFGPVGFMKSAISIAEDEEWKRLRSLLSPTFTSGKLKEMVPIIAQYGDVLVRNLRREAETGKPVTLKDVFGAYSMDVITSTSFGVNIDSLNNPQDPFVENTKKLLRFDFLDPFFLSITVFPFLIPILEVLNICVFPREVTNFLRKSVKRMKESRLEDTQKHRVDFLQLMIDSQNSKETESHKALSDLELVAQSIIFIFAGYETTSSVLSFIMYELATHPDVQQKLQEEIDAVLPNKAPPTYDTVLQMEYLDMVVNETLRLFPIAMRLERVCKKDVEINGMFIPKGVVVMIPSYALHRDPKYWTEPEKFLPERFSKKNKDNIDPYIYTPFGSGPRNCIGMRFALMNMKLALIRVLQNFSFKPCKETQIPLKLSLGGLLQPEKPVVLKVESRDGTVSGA

[5] = target: T2, Ubiquitin-conjugating enzyme E2 N (Homo sapiens, UniProt P61088); format: functional;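 also: Dose-response confirmation in a TR-FRET assay detecting UBC13-driven polyubiquitin chain formation, inhibition measured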
T2 sequence (P61088 whole entry): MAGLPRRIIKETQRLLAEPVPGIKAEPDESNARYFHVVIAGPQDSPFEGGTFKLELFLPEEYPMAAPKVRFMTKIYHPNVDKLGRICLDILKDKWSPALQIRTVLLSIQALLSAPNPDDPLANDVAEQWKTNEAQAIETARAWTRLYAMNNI

[6] = target: T3, DNA repair protein RAD52 homolog (Homo sapiens, UniProt P43351); format: functional, biochemical
T3 sequence (P43351 whole entry): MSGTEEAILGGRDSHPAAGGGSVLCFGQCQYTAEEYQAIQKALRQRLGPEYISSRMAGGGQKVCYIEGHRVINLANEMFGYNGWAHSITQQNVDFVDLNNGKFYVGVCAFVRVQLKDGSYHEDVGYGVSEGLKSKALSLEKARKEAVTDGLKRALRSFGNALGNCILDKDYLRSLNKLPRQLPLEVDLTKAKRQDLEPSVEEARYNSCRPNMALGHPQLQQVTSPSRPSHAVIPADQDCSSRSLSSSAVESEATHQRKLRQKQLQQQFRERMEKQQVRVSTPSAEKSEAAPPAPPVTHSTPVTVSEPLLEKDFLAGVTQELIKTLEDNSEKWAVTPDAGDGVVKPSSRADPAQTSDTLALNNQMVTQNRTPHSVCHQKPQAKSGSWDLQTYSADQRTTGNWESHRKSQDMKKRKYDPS

Nonstructural protein 1 = Nonstructural protein 1 (Influenza A virus, UniProt Q194T2); format: functional, Influenza A virus (A/California/07/2009(H1N1))
Sequence of Nonstructural protein 1 (Q194T2 whole entry): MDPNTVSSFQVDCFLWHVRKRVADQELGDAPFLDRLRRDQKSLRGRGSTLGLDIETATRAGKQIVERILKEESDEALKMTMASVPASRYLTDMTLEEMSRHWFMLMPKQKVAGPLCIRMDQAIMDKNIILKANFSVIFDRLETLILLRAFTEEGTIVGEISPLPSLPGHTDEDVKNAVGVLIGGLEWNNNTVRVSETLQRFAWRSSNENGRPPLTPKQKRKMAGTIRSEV

Trypsin = Trypsin (Sus scrofa, UniProt P00761); assay: porcine trypsin inhibitors, dose response, selectivity assay for Rce1 protease inhibitor project, biochemical, quenched peptide fluorescence, cherry-pick (AID 488789)
Sequence of Trypsin (P00761 whole entry): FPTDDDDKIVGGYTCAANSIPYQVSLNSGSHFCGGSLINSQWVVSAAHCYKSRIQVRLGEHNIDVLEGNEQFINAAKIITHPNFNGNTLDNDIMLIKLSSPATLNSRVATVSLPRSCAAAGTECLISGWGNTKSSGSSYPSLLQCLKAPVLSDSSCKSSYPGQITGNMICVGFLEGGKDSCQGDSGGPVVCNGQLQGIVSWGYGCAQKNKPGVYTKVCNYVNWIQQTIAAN

[7] = target: T4, Replicative DNA helicase DnaB (Mycobacterium tuberculosis, UniProt P9WMR3); assay: DnaB intein splicing inhibitors, dose response, biochemical, cell-free fluorescence (AID 449749); format: functional
T4 sequence (P9WMR3 whole entry): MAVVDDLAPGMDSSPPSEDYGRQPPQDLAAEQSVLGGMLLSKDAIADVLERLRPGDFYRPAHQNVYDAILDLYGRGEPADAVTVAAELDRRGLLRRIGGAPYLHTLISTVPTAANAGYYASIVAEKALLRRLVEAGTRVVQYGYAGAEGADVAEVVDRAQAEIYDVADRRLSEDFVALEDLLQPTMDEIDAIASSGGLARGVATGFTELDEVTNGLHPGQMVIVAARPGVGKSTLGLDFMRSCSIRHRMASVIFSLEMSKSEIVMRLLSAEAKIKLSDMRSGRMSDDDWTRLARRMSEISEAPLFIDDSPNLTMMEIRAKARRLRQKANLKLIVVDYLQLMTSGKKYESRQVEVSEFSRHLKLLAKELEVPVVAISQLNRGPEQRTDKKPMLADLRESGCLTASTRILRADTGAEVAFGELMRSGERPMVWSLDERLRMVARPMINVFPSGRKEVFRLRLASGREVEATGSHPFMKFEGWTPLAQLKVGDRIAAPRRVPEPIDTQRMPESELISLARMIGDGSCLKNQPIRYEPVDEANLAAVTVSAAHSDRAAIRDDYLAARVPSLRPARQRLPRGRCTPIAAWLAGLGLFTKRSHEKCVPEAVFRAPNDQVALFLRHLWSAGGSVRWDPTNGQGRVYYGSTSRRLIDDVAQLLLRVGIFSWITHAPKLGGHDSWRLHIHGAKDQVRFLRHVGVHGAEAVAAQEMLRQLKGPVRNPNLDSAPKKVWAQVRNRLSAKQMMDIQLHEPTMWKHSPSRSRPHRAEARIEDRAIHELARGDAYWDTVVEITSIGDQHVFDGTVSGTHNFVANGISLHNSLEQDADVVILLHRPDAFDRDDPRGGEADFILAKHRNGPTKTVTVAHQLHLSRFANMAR

Protein RecA = target: T5, Protein RecA (Mycobacterium tuberculosis, UniProt P9WHJ3); assay: Fluorescence Cell-Free Homogeneous Dose Retest to Identify Inhibitors of RecA-Intein Splicing Activity. [Related pubchem assays (depositor defined):AID2097, AID2223, AID489010, AID492950]; format: functional
T5 sequence (P9WHJ3 whole entry): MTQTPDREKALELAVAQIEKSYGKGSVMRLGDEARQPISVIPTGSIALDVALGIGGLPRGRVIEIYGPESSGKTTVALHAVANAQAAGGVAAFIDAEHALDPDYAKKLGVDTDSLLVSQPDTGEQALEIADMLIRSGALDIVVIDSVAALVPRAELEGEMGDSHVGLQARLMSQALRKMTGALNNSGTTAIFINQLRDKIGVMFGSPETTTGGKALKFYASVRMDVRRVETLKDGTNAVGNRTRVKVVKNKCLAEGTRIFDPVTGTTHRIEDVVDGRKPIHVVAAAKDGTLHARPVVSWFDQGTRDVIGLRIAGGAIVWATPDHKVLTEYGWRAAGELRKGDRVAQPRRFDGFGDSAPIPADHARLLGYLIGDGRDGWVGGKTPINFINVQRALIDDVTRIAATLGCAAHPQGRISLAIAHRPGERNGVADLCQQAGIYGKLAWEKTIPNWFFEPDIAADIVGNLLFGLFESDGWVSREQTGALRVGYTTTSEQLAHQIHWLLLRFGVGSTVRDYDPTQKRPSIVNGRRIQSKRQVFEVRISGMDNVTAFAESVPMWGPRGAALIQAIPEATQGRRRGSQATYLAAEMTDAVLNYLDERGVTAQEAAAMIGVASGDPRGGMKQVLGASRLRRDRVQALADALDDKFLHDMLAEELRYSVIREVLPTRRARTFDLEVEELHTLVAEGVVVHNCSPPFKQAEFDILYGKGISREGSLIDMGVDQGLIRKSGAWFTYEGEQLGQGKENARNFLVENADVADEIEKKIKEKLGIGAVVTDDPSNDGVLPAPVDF

SUMO-activating enzyme = SUMO-activating enzyme (Homo sapiens, UniProt Q9UBT2); assay: inhibitors of in vitro SUMOylation cascade, primary screen, biochemical, HTRF, uHTS (AID 2006); format: protein-complex assay
Sequence of SUMO-activating enzyme (Q9UBE0 whole entry): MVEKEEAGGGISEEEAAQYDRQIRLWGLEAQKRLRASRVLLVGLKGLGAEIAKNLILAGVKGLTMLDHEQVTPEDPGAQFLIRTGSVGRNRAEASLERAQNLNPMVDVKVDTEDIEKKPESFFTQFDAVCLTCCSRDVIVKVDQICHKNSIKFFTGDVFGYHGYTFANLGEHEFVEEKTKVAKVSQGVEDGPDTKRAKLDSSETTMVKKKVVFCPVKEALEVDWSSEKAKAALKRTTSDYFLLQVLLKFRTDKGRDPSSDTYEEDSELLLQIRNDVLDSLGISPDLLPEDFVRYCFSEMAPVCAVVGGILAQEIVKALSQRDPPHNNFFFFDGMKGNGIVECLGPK
Sequence of SUMO-activating enzyme (Q9UBT2 whole entry): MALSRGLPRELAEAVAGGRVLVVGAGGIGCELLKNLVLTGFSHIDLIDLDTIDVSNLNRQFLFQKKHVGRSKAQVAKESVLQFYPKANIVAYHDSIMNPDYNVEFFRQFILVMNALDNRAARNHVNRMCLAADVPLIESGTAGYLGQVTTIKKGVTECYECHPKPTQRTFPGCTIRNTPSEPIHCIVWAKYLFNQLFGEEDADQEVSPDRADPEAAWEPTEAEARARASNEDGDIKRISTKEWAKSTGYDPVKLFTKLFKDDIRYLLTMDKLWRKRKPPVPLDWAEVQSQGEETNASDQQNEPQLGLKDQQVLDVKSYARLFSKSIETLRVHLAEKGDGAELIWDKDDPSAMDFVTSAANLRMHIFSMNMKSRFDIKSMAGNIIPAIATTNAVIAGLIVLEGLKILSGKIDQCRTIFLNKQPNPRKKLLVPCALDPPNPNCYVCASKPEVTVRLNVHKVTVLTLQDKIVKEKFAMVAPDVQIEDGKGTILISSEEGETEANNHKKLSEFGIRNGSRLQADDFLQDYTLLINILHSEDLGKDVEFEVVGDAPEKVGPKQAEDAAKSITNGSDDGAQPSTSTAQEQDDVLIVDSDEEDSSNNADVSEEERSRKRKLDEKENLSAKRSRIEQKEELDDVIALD

[8] = target: T6, Heat shock factor protein 1 (Mus musculus, UniProt P38532); assay: HSF1 potentiators in luciferase reporter cells, confirmation, cell-based, NIH3T3, luminescence, dose retest (AID 435004); format: functional;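 also: stress induced by proteasome inhibitor MG132 added 30 min after compound; luciferase reporter driven by HSF1 response element in NIH3T3 cells; actives raise luminescence as potentiators of the MG132 stress response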
T6 sequence (P38532 whole entry): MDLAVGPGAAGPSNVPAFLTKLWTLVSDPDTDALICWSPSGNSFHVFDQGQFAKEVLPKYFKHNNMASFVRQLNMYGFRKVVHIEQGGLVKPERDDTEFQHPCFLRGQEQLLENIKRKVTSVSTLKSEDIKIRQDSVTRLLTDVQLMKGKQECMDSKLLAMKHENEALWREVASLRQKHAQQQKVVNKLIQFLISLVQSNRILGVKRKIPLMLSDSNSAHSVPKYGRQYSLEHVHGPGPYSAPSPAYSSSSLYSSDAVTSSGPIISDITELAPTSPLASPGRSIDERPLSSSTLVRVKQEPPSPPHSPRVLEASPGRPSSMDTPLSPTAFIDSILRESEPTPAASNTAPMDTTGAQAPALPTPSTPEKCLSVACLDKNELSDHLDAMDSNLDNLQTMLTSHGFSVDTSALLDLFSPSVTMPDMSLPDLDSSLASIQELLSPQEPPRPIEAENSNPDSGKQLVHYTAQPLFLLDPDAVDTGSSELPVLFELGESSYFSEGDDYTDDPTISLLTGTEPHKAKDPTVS

[9] = target: T7, Calpain-2 catalytic subunit (Sus scrofa, UniProt P43367); assay: pig calpain II inhibitor potency, dose response, biochemical, fluorogenic peptide substrate (AID 1420); format: functional
T7 sequence (P43367 whole entry): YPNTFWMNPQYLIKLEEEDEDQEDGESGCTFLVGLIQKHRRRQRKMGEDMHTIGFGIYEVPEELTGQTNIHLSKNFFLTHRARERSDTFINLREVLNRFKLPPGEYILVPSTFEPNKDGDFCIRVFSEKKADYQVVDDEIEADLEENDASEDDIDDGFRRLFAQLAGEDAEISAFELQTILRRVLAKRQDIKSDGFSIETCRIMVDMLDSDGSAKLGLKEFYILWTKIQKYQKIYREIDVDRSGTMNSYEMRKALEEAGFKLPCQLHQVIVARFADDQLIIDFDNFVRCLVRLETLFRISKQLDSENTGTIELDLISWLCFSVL

With `Cc1nonc1NC(=O)OCCN1CCOC1=O` the EC50 [1] was > 50 µM (not active) and the AC50 (Cytochrome P450 2C19) was “inconclusive”.
With `CCCc1c(NC(=O)Nc2ccc(F)cc2)cnn1-c1ccccc1` the CC50 [2] was 21.3 µM (active), the IC50 (Vero [3]) was 2.12 µM (active) and the CC50 (Vero [4]) was > 25 µM (active). For the same compound, the IC50 (cells) was 4.51 µM (active).
In the case of `COC(=O)C1=C(C)N(Cc2ccccc2)[C@]23O[C@](C(=O)OC)(C(=O)N2C1c1ccccc1)C(C(=O)OC)=C3C(=O)OC` (stereo partly drawn), the AC50 (Cytochrome P450 3A4) was 3.16 µM (inconclusive).
With `CCc1ccc(-c2cc(C(=O)N/N=C/c3ccccn3)[nH]n2)cc1` the IC50 [5] was > 20 µM (inactive).
With `CN1CCN(C2CCN(Cc3ccc(O)c4ncccc34)CC2)CC1` the AC50 [6] was 1.11 µM (active), the IC50 (Nonstructural protein 1) was 5.84 µM (active) and the IC50 [5] was > 20 µM (inactive).
In the case of `O=C1C(Cc2c[nH]c3ccccc23)NC(=S)N1Cc1ccccc1` (stereo not drawn), the AC50 (Trypsin) was 14.3 µM (active).
For `CNC(=O)/C(C#N)=C/c1c(N(Cc2ccccc2)Cc2ccccc2)nc2c(C)cccn2c1=O`, the AC50 [7] was > 120 µM (inactive), the EC50 (Protein RecA) was 104 µM (active) and the CC50 [2] was 10.1 µM (active). For the same compound, the IC50 (cells) was 11.3 µM (active).
In the case of `Cc1ccc2[nH]c3c(c2c1)CN(C(=O)CN1CCCc2ccccc21)CC3`, the IC50 (SUMO-activating enzyme) was 69.6 µM (active).
For `FC(F)(F)c1ccc(C2[C@H]3CN(Cc4ccc(-c5ccccc5)cc4)[C@H](c4ccccc4)C34CC2(c2ccccc2)C4)cc1` (stereo partly drawn), the AC50 (Cytochrome P450 3A4) was 25.1 µM (inconclusive).
In the case of `O=C(NCCCN1CCCCC1)C1CCN(c2ncnc3c2nc2n3CCCCC2)CC1`, the IC50 [5] was > 20 µM (inactive).
With `COCCCn1c(SCC(=O)OC2CCCCC2)nnc1-c1ccco1` the EC50 [1] was > 50 µM (not active).
With `Cc1ccc(N(CCCCN2C(=O)c3ccccc3C2=O)C(=O)c2cccc([N+](=O)[O-])c2)cc1` the EC50 [8] was 33.2 µM (active), the CC50 [2] was > 50 µM (active) and the IC50 (cells) was 15.8 µM (active).
For `Nc1nonc1-c1noc(CCCCCN2C(=O)c3ccccc3C2=O)n1`, the EC50 [1] was > 10 µM (not active) and the IC50 [9] was 2.74 µM (not active).
In the case of `Cc1ccc(-c2csc(N3CCN(c4cc5c(cc4Cl)nc(C)n5CCN4CCCCC4)CC3)n2)cc1`, the IC50 [5] was > 20 µM (inactive).
In the case of `OC(COCC1CC=CCC1)Cn1cnc2ccccc21` (stereo not drawn), the EC50 [1] was > 50 µM (not active).
In the case of `COC(=O)N1C2(C=CC1(C)C(=O)NCc1ccc(N(C)C)cc1)CCCCC2` (stereo not drawn), the AC50 (Cytochrome P450 3A4) was 0.501 µM (inconclusive).
